The test system of this test is secretion of endogenous insulin-degrading enzyme (IDE). Kind of test: Secretion assay: effect of lovastatin on IDE secretion in COS-7 cells transfected with GFAP-ΔEx4 (Western immunoblot, ratio of IDE in medium to IDE in lysates). In kind it is cell-based, monkey. The following applies: Primates, 5 µM lovastatin for 15 hours, 36 hours post transfection, versus DMSO vehicle, read-out: increase of IDE secretion (ratio of IDE in the medium to IDE in the lysates) compared to GFAP-ΔEx4. How it is done: COS-7 cells, a fibroblast-like cell line from monkey kidney tissue (ATCC, USA), were cultured in Dulbecco's Modified Eagle Medium (DMEM) (Life Technologies) containing 10% Fetal calf serum (FCS) (Life Technologies) and 1% Penicillin/Streptomycin (PS) (Life Technologies) (DMEM +/+) and splitted into new dishes (Coming). For all experiments cells were counted by using a Neubauer counting chamber. To estimate cell number (cells/ml), the average number from four big squares of the Neubauer chamber was multiplied by 10'000 and the cell suspension was diluted to the desired cell concentration. […]
The effect of statins on the secretion of IDE disturbed by Alexander disease-causing mutation in the 2A rod region of GFAP was determined by cell transfection and pharmacological treatment in COS-7 cells.
Cells were seeded in 6 well plates day before the transfection to a 50% confluence in DMEM medium supplemented with 10% FCS/1% PS. […] Proteins were separated by sodium dodecyl sulfate-polyacrylamide gel electrophoresis (SDS-PAGE), transferred to nitrocellulose membranes (Whatman), and detected by Western immunoblotting using enhanced chemiluminescence detection (ChemiDoc XRS, Bio-Rad). Signals were quantified with Quantity One Software (Bio-Rad).
On the technique in general: In western blotting, separated proteins are transferred to a membrane and probed.

In the case of `CC[C@H](C)C(=O)O[C@H]1C[C@@H](C)C=C2C=C[C@H](C)[C@H](CC[C@@H]3C[C@@H](O)CC(=O)O3)[C@H]21` [lovastatin, [(1S,3R,7S,8S,8aR)-8-[2-[(2R,4R)-4-hydroxy-6-oxooxan-2-yl]ethyl]-3,7-dimethyl-1,2,3,7,8,8a-hexahydronaphthalen-1-yl] (2S)-2-methylbutanoate], the activation at 5 µM was around 100%.

These data come from patent EP2839831A1, “Modulators of the unconventional secretory pathway for use in the treatment of Alexander disease” (Rheinische Friedrich-Wilhelms-Universität Bonn, priority 2013, dated 2015).
